Three compounds from US7368255B2, “RUNX3 gene showing anti-tumor activity and use thereof” (priority 2001, dated 2008) can be followed below.

The test system of one assay is RUNX3 gene expression. The experiment in a line: Reactivation of RUNX3 gene expression, RT-PCR. Particulars: AZA 300 nM, TSA 1 mM, alone or in combination, 3 days, NUGC3, MKN28, MKN74 cell lines. The format is cell-based, human. How it is done: To determine whether the DNA methylation observed in Example 5-1 is the direct cause of the inactivation of the RUNX3 gene, the influence of a DNA methyltransferase inhibitor and a histone deacetylase inhibitor on the reactivation of the RUNX3 gene expression was analyzed.
The NUGC3, MKN28, and MKN74 cell lines (selected randomly from the cell lines showing no RUNX3 gene expression by RT-PCR analysis) were treated with […] (AZA, 300 nM), which inhibits DNA methyltransferase, and trichostatin A (TSA, […]), which inhibits histone deacetylase, alone or in combination. After 3 days of the treatment, total RNA was isolated from each cell line in accordance with the same standardized single-step guanidium method used in Example 4-1, and then analyzed for the expression of the RUNX3 gene by RT-PCR using the PS-N primer pair of SEQ. ID. NOS: 4 and 5.

The test system of assay [1] is SNU16-Rx3-AS-c12 cells. The experiment in a line: TGF-β1-induced cell death, viable cell counts. It is filed as cell-based. Particulars: TGF-β1 1 ng/ml; SNU16-Rx3-AS-c12 cells (antisense RUNX3).
In assay [2] the test system is SNU16-Rx3-AS-c11 cells. The experiment in a line: Apoptotic DNA bands by genomic DNA electrophoresis after TGF-β1. The format is cell-based. Particulars: TGF-β1 1 ng/ml, 6 hours. On the procedure: (§1) Cells dying through the programmed cell death pathway reveal a distinct pattern of DNA bands when electrophoresed in an agarose gel. After being treated with 1 ng/ml TGF-β1 for 6 hours, the control-SNU16, SNU16-Rx3-AS-c11, and SNU16-Rx3-AS-c12 strains were lysed to isolate genomic DNAs according to a standard method (Sambrook et al., 1988, Molecular Cloning: a laboratory manual, 2nd Ed. Cold Spring Harbor Laboratory, Cold Spring Harbor, N.Y., USA). 0.2 μg of each of the genomic DNA preparations was electrophoresed on a 1.5% agarose gel and visualized with ethidium bromide under UV light.

In assay [3] the test system is SNU16-Rx3-AS-c12 cells. The assay is described as above. The format is cell-based. The following applies: TGF-β1 1 ng/ml, 6 hours. How it is done:
as §1

The subject of assay [4] is SNU16 cells. The assay is described as above. The format is cell-based. The following applies: TGF-β1 1 ng/ml, 6 hours. How it is done: as §1
The test system of assay [5] is SNU16 cells. The experiment in a line: TGF-β1-induced cell death, viable cell counts. The format is cell-based. The following applies: TGF-β1 1 ng/ml.
Assay [6] concerns SNU16-Rx3-AS-c11 cells. The experiment in a line: TGF-β1-induced cell death, viable cell counts. It is filed as cell-based. The following applies: TGF-β1 1 ng/ml; SNU16-Rx3-AS-c11 cells (antisense RUNX3).

Entries after “also recorded” stand apart in the source; their conditions may differ.

On to `CC(/C=C/C(=O)NO)=C\[C@@H](C)C(=O)c1ccc(N(C)C)cc1` [trichostatin A], for which the “expression of the RUNX3 gene (RT-PCR)” value in the assay on RUNX3 gene expression was “allows the RUNX3 gene to be expressed; also recorded: the expression of the RUNX3 gene was induced”.

Consider “TGF-β1: TGF-β1 cytokine used at 1 ng/ml to induce cell death in SNU16 cells”, for which the “cell death after TGF-β1 treatment” value with SNU16-Rx3-AS-c12 cells [1] and in the assay with SNU16-Rx3-AS-c11 cells [6] was “did not kill” throughout. The “apoptotic DNA bands” value in the assay with SNU16-Rx3-AS-c11 cells [2] is listed as “no apoptotic bands were observed”; in the assay on SNU16-Rx3-AS-c12 cells [3] it was “no apoptotic bands were observed”; in the assay on SNU16 cells [4], “apoptotic DNA bands were formed; also recorded: These bands are apparent”. Further, the “time within which SNU16 cells were killed” value in the assay with SNU16 cells [5] was no more than 2 days.

For `Nc1ncn([C@H]2C[C@H](O)[C@@H](CO)O2)c(=O)n1`, the figures for the “expression of the RUNX3 gene (RT-PCR)” value in the assay on RUNX3 gene expression and in the assay on RUNX3 gene expression (listed as 5-aza-2-deoxycytidine) were “the expression of the RUNX3 gene was induced” and “allows the RUNX3 gene to be expressed”, respectively.
